According to patent EP4650362A1, “NEUROPROTECTIVE PSD-95 POLYPEPTIDE INHIBITOR AND USE THEREOF” (Beijing Tuo Jie Biopharmaceutical Co. Ltd., priority 2023, dated 2024):
Non-standard residues stand in square brackets, D forms with d. Residues, ends and D or L forms follow the SMILES beside them. hArg = N=C(N)NCCCC[C@H](N)C(=O)O; Tle = CC(C)(C)[C@H](N)C(=O)O; Dab = NCC[C@H](N)C(=O)O; Aib = CC(C)(N)C(=O)O

What was measured:
human PSD95-PDZ2 [1] = molecular target: T1, human PSD95-PDZ2 (Homo sapiens, UniProt P78352); experiment: binding ELISA with Biotin-PDZ2; details: for EC50: plate coated with 2 µM test compound, Biotin-PDZ2 titrated, read-out: EC50 (PDZ2); for Specificity for PDZ2 (PDZ3/PDZ2): ratio PDZ3/PDZ2
T1 construct: PDZ2 (155-249, the Flag-His-Avitag-TEVsite tag is italicized); made in house; host or cells: E. coli BL21-DE3 (PET vector)
Description: (§1) The three PDZ domains in the PSD95 protein are structurally similar. Binding to the PDZ1 and PDZ2 domains can effectively block PSD95-mediated neuroexcitotoxicity. However, the biological function of binding to the PDZ3 domain is unclear. Therefore, to avoid potential safety concerns, this test example assessed the selectivity of polypeptide compounds for the PDZ2 and PDZ3 domains, aiming to identify polypeptide compounds that specifically bind to the PDZ2 domain. Site-specifically biotinylated Biotin-PDZ2 and Biotin-PDZ3 proteins were used for binding ELISA assays. […] After the blocking was complete, the blocking solution was discarded, and the plate was washed three times with PBST buffer. […] After the incubation was complete, the reaction solutions in the microplate were discarded, and the plate was washed three times with PBST. 100 µL of HRP-SA secondary antibody (diluted at 1:2000) was added to each well, and the plate was incubated at 37 °C for 1 h. After the plate was washed three times with PBST, 100 µL of TMB chromogenic substrate was added. […] The absorbance at 450 nm was measured using a SpectraMax M5 microplate reader, and the binding EC50 values of the test compounds to Biotin-PDZ2 or Biotin-PDZ3 were calculated using GraphPad Prism 9. […] The abilities of polypeptide compounds to bind to human PSD95-PDZ2 and human PSD95-PDZ3
Target sequence in this assay (P78352 155-249): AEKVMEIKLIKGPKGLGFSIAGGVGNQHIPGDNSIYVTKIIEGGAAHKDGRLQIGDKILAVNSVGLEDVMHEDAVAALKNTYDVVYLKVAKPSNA

human PSD95-PDZ3 = molecular target: T2, human PSD95-PDZ3 (Homo sapiens, UniProt P78352); experiment: binding ELISA with Biotin-PDZ3; details: plate coated with 2 µM test compound, Biotin-PDZ3 titrated; read-out: EC50 (PDZ3)
T2 construct: PDZ3 (309-401, Flag-His-Avitag-TEVsite tag); made in house
Description: as §1, with “domain. The expression and purification of PSD95-PDZ3 protein were carried out with reference to the steps in 3.1.2. The amino acid sequence of PDZ3 protein: […]” for “domain.”, “μL” for “µL”

human PSD95-PDZ2 [2] = molecular target: T1, human PSD95-PDZ2; experiment: competitive ELISA, affinity for human PSD95-PDZ2; type: binding; details: for IC50: competitive ELISA against 0.3 µM Biotin-NA-1, error of this test within three times, read-out: IC50; for rIC50: ratio of the affinity of the polypeptide compound to the affinity of NA-1
Description: The objective of this test example was to determine the affinities of polypeptide compounds for human PSD95-PDZ2 using competitive ELISAs.
The amino acid sequence of PDZ2 protein was designed using human PSD95 (Uniprot Entry: P78352) as a template for PDZ: PDZ2 (155-249, the Flag-His-Avitag-TEVsite tag is italicized and was subsequently used for purification and biotinylation): […]
[…] (SEQ ID NO. 62). The PDZ2 gene was constructed onto a PET expression vector, and induced expression was performed using BL21-DE3 E. coli cells under conditions of 37 °C and 1 mM IPTG 4 h. Then centrifugation was performed at 10,000 g at 4 °C for 10 min, and the cell pellets were collected, resuspended in 1× PBS solution, and then lysed using a homogenizer. The lysate was centrifuged at high speed, and the supernatant was collected and filtered through a 0.45 µm membrane. A Ni-Sepharose affinity column was equilibrated with 5 column volumes of a 20 mM phosphate buffer (pH 8.0). The sample was centrifuged at high speed to remove impurities and loaded onto the column for binding. The column was rinsed with the 20 mM phosphate buffer until the A280 reading dropped to the baseline. Gradient elution was then performed with the 20 mM phosphate buffer and 0-500 mM imidazole. A protein was collected, and whether it was the target protein was determined. The purified sample described above was buffer-exchanged into 1× PBS solution, and the resulting solution was concentrated to a volume of 2 mL and further purified using a Superdex200 gel chromatography column (GE) equilibrated with 1× PBS. The target peak was collected and aliquoted for later use.
PSD95-PDZ2 (the tag was removed by TEV enzyme) was diluted with 1× PBS buffer to 1 µg/mL, added to a 96-well microplate (Corning, 9018, 25/box 96-well clear flat bottom plate) at 100 µL/well, and left to stand overnight at 4 °C for 16-20 h. After the liquid was discarded, the plate was washed three times with PBST (pH 7.4, 0.05% Tween-20) buffer, and a 4% BSA blocking solution diluted with PBST buffer was then added (300 µL/well). The plate was blocked by incubation in an incubator at 37 °C for 1 h. After the blocking was complete, the blocking solution was discarded, and the plate was washed three times with PBST buffer. Biotin-NA-1, at a constant concentration of 0.3 µM, and the test compounds, having a starting concentration of 100 µM and serially diluted ten-fold with PBS buffer to seven concentrations (100, 10, 1, 0.1, 0.01, 0.001, 0.0001, and 0 µM), were then added, and the plate was incubated in an incubator at 37 °C for 1 h. After the incubation was complete, the reaction solutions in the microplate were discarded, and the plate was washed three times with PBST. 100 µL of HRP-SA secondary antibody (diluted at 1:2000) was added to each well, and the plate was incubated at 37 °C for 1 h. After the plate was washed three times with PBST, 100 µL of TMB chromogenic substrate was added. The plate was incubated at room temperature for 1-3 min, and 100 µL of 1 M sulfuric acid was added to stop the reaction.
The absorbance at 450 nm was measured using a SpectraMax M5 microplate reader, and non-linear fitting was performed using GraphPad Prism 9 to calculate the binding IC50 values of the test compounds to PSD95-PDZ2 protein.

T2 sequence (P78352 309-401): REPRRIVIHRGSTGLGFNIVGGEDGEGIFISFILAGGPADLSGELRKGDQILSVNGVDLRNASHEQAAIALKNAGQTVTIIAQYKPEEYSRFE

Structure (SMILES) | selectivity for the PSD95-PDZ2 domain (human PSD95-PDZ2 [1]; PDZ2 versus PDZ3, conclusion in words) | EC50 (human PSD95-PDZ2 [1]) | Specificity for PDZ2 (PDZ3/PDZ2) (human PSD95-PDZ2 [1]) | EC50 (human PSD95-PDZ3) | IC50 (human PSD95-PDZ2 [2]) | rIC50 (human PSD95-PDZ2 [2])
CC(C)[C@H](NC(=O)[C@H](CC(=O)O)NC(=O)[C@@H](NC(=O)[C@@H](NC(=O)[C@@H](NC(=O)COCCOCCNC(=O)[C@@H](CCCNC(=N)N)NC(=O)[C@@H](CCCNC(=N)N)NC(=O)[C@@H](CCCNC(=N)N)NC(=O)[C@@H](CCC(N)=O)NC(=O)[C@@H](CCCNC(=N)N)NC(=O)[C@@H](CCCNC(=N)N)NC(=O)[C@@H](CCCCN)NC(=O)[C@@H](CCCCN)NC(=O)[C@@H](CCCNC(=N)N)NC(=O)CNC(=O)[C@H](N)Cc1ccc(O)cc1)C(C)(C)C)C(C)(C)C)[C@@H](C)O)C(=O)O [Polypeptide compound 15, y-G-r-k-k-r-r-q-r-r-r-AEEA-Tle-Tle-T-D-V] | comparable to that of the positive drugs NA-1 and NoNO42 | 0.088 µM | >10000 | > 1000 µM | 2.62 µM | 3.00
CCCC[C@H](NC(=O)[C@@H](CCCNC(=N)N)NC(=O)[C@@H](CCCNC(=N)N)NC(=O)[C@@H](CCCNC(=N)N)NC(=O)[C@@H](CCC(N)=O)NC(=O)[C@@H](CCCNC(=N)N)NC(=O)[C@@H](CCCNC(=N)N)NC(=O)[C@@H](CCCCN)NC(=O)[C@@H](CCCCN)NC(=O)[C@@H](CCCNC(=N)N)NC(=O)CNC(=O)[C@H](N)Cc1ccc(O)cc1)C(=O)N[C@H](C(=O)N[C@H](C(=O)N[C@H](C(=O)N[C@H](C(=O)N[C@H](C(=O)N[C@@H](CC(=O)O)C(=O)N[C@H](C(=O)O)C(C)C)[C@@H](C)O)C(C)(C)C)C(C)(C)C)[C@@H](C)O)[C@@H](C)O [Polypeptide compound 16, y-G-r-k-k-r-r-q-r-r-r-Nle-T-T-Tle-Tle-T-D-V] |  | 0.081 µM |  | > 1000 µM | 1.52 µM | 
CC[C@H](C)[C@H](NC(=O)[C@H](CCCCNC(=N)N)NC(=O)[C@H](CCCCNC(=N)N)NC(=O)[C@@H](NC(=O)[C@@H](CCCNC(=N)N)NC(=O)[C@@H](CCCNC(=N)N)NC(=O)[C@@H](CCCNC(=N)N)NC(=O)[C@@H](CCC(N)=O)NC(=O)[C@@H](CCCNC(=N)N)NC(=O)[C@@H](CCCNC(=N)N)NC(=O)[C@@H](CCCCN)NC(=O)[C@@H](CCCCN)NC(=O)[C@@H](CCCNC(=N)N)NC(=O)CNC(=O)[C@H](N)Cc1ccc(O)cc1)[C@@H](C)O)C(=O)N[C@H](C(=O)N[C@@H](CC(=O)O)C(=O)N[C@H](C(=O)O)C(C)C)[C@@H](C)O [Polypeptide compound 17, y-G-r-k-k-r-r-q-r-r-r-T-homoArg-homoArg-I-T-D-V] (H-[dY]G[dR][dK][dK][dR][dR][dQ][dR][dR][dR]T[hArg][hArg]ITDV-OH) |  | 0.269 µM |  | 38.3 µM | 0.605 µM | 
CC(C)[C@H](NC(=O)[C@H](CC(=O)O)NC(=O)[C@@H](NC(=O)[C@@H](NC(=O)[C@@H](NC(=O)[C@H](CCCCNC(=N)N)NC(=O)[C@H](CCN)NC(=O)C(C)(C)NC(=O)CNC(=O)[C@@H](CCCNC(=N)N)NC(=O)[C@@H](CCCNC(=N)N)NC(=O)[C@@H](CCCNC(=N)N)NC(=O)[C@@H](CCC(N)=O)NC(=O)[C@@H](CCCNC(=N)N)NC(=O)[C@@H](CCCNC(=N)N)NC(=O)[C@@H](CCCCN)NC(=O)[C@@H](CCCCN)NC(=O)[C@@H](CCCNC(=N)N)NC(=O)CNC(=O)[C@H](N)Cc1ccc(O)cc1)C(C)(C)C)C(C)(C)C)[C@@H](C)O)C(=O)O [Polypeptide compound 18, y-G-r-k-k-r-r-q-r-r-r-G-Aib-Dab-homoArg-Tle-Tle-T-D-V] (H-[dY]G[dR][dK][dK][dR][dR][dQ][dR][dR][dR]G[Aib][Dab][hArg][Tle][Tle]TDV-OH) |  | 0.015 µM | 79 | 1.19 µM | 0.152 µM | 0.17
